Laboratory results taken from PubChem BioAssay AID2060493 (Molecular Pharmacology Branch, DTP, NCI, 2025).

Test system: 616215-338-R-J1-PDC tumor spheroids, viability
Assay: Anticancer human tumor 616215-338-R-J1-PDC patient-derived colon adenocarcinoma cell line growth inhibition [GQUAD]
Settings: spheroids with HUVEC and MSC; for IC50: curve of first compound; for viability, T/C: stronger effect = lower value
Procedure, shortened: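 Viability of tumor cells grown as complex spheroids with endothelial and stromal cells, exposed to drug combinations. Top concentration at or near clinical Cmax (else 10 microM), diluted in half-log increments.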

[1] = second compound 0.0316 µM, first compound 0.0316 µM
[2] = second compound 0.0316 µM, first compound 0.316 µM
[3] = second compound 0.1 µM, first compound 0.0316 µM
[4] = second compound 0.1 µM, first compound 0.316 µM
[5] = second compound 0.316 µM, first compound 0.0316 µM
[6] = second compound 0.316 µM, first compound 0.316 µM
[7] = second compound 1 µM, first compound 0.0316 µM
[8] = second compound 1 µM, first compound 0.316 µM
[9] = second compound 3.16 µM, first compound 0.0316 µM
[10] = second compound 3.16 µM, first compound 0.316 µM
[11] = second compound 10 µM, first compound 0.0316 µM
[12] = second compound 10 µM, first compound 0.316 µM
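Further: spheroids exposed to agents for 7 days before readout.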
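Wherever viability, T/C is given: percent viability relative to DMSO vehicle control wells taken as 100%.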

For CCc1c2c(nc3ccc(O)cc13)-c1cc3c(c(=O)n1C2)COC(=O)[C@]3(O)CC + Cc1[nH]c2ccc(F)cc2c1-c1nc2c3cccnc3c3ncccc3c2[nH]1, the IC50 (second compound 0.0316 µM) was 16.7 nM, the IC50 (second compound 0.1 µM) was 9.2 nM and the IC50 (second compound 0.316 µM) was 8.78 nM. The IC50 (second compound 1 µM) was 12 nM, the IC50 (second compound 3.16 µM) was 13.2 nM and the IC50 (second compound 10 µM) was 7.87 nM. The viability, T/C (second compound 0.0316 µM, first compound 0.000999 µM) was 97.3%, the viability, T/C (second compound 0.0316 µM, first compound 0.00316 µM) was 81.9% and the viability, T/C (second compound 0.0316 µM, first compound 0.00999 µM) was 53.6%. The viability, T/C [1] was 43%, the viability, T/C (second compound 0.0316 µM, first compound 0.0999 µM) was 23.4% and the viability, T/C [2] was 12.8%. It also gave a viability, T/C (second compound 0.1 µM, first compound 0.000999 µM) of 94.5%, a viability, T/C (second compound 0.1 µM, first compound 0.00316 µM) of 100% and a viability, T/C (second compound 0.1 µM, first compound 0.00999 µM) of 46.3%. For the same compound, the viability, T/C [3] was 33.1%, the viability, T/C (second compound 0.1 µM, first compound 0.0999 µM) was 24.9% and the viability, T/C [4] was 19.9%. For the same compound, the viability, T/C (second compound 0.316 µM, first compound 0.000999 µM) was 96.5%, the viability, T/C (second compound 0.316 µM, first compound 0.00316 µM) was 90.3% and the viability, T/C (second compound 0.316 µM, first compound 0.00999 µM) was 42.5%. The viability, T/C [5] was 32.3%, the viability, T/C (second compound 0.316 µM, first compound 0.0999 µM) was 21.8% and the viability, T/C [6] was 13.8%. For the same compound, the viability, T/C (second compound 1 µM, first compound 0.000999 µM) was 108%, the viability, T/C (second compound 1 µM, first compound 0.00316 µM) was 76.8% and the viability, T/C (second compound 1 µM, first compound 0.00999 µM) was 58.9%. The viability, T/C [7] was 28.5%, the viability, T/C (second compound 1 µM, first compound 0.0999 µM) was 21.7% and the viability, T/C [8] was 16.4%. It also gave a viability, T/C (second compound 3.16 µM, first compound 0.000999 µM) of 98.5%, a viability, T/C (second compound 3.16 µM, first compound 0.00316 µM) of 86.5% and a viability, T/C (second compound 3.16 µM, first compound 0.00999 µM) of 51.2%. The viability, T/C [9] was 35.2%, the viability, T/C (second compound 3.16 µM, first compound 0.0999 µM) was 20.7% and the viability, T/C [10] was 14.5%. It also gave a viability, T/C (second compound 10 µM, first compound 0.000999 µM) of 90.3%, a viability, T/C (second compound 10 µM, first compound 0.00316 µM) of 74.9% and a viability, T/C (second compound 10 µM, first compound 0.00999 µM) of 42.5%. The viability, T/C [11] was 24.5%, the viability, T/C (second compound 10 µM, first compound 0.0999 µM) was 20.5% and the viability, T/C [12] was 13.4%.

CC1COCCN1c1cc(C2(O)CC3CCC(C2)O3)c2cnn(-c3ccn[nH]3)c2n1 (centres undefined) + Cc1[nH]c2ccc(F)cc2c1-c1nc2c3cccnc3c3ncccc3c2[nH]1 showed an IC50 (second compound 0.0316 µM) of 236 nM, an IC50 (second compound 0.1 µM) of 226 nM and an IC50 (second compound 0.316 µM) of 234 nM. It also gave an IC50 (second compound 1 µM) of 222 nM, an IC50 (second compound 3.16 µM) of 176 nM and an IC50 (second compound 10 µM) of 120 nM. It also gave a viability, T/C [1] of 95.4%, a viability, T/C (second compound 0.0316 µM, first compound 0.1 µM) of 78% and a viability, T/C [2] of 40.1%. The viability, T/C (second compound 0.0316 µM, first compound 1 µM) was 30.6%, the viability, T/C (second compound 0.0316 µM, first compound 3.16 µM) was 28.8% and the viability, T/C (second compound 0.0316 µM, first compound 10 µM) was 25.9%. The viability, T/C [3] was 90.2%, the viability, T/C (second compound 0.1 µM, first compound 0.1 µM) was 83.9% and the viability, T/C [4] was 35.6%. The viability, T/C (second compound 0.1 µM, first compound 1 µM) was 31.1%, the viability, T/C (second compound 0.1 µM, first compound 3.16 µM) was 23.8% and the viability, T/C (second compound 0.1 µM, first compound 10 µM) was 17%. It also gave a viability, T/C [5] of 91.8%, a viability, T/C (second compound 0.316 µM, first compound 0.1 µM) of 61.5% and a viability, T/C [6] of 42.4%. It also gave a viability, T/C (second compound 0.316 µM, first compound 1 µM) of 40%, a viability, T/C (second compound 0.316 µM, first compound 3.16 µM) of 26.1% and a viability, T/C (second compound 0.316 µM, first compound 10 µM) of 19.9%. For the same compound, the viability, T/C [7] was 99.5%, the viability, T/C (second compound 1 µM, first compound 0.1 µM) was 59.7% and the viability, T/C [8] was 47.4%. For the same compound, the viability, T/C (second compound 1 µM, first compound 1 µM) was 32.7%, the viability, T/C (second compound 1 µM, first compound 3.16 µM) was 23.2% and the viability, T/C (second compound 1 µM, first compound 10 µM) was 19.3%. For the same compound, the viability, T/C [9] was 92.4%, the viability, T/C (second compound 3.16 µM, first compound 0.1 µM) was 71.8% and the viability, T/C [10] was 27.2%. For the same compound, the viability, T/C (second compound 3.16 µM, first compound 1 µM) was 31.7%, the viability, T/C (second compound 3.16 µM, first compound 3.16 µM) was 25.7% and the viability, T/C (second compound 3.16 µM, first compound 10 µM) was 16.4%. It also gave a viability, T/C [11] of 88.4%, a viability, T/C (second compound 10 µM, first compound 0.1 µM) of 50.8% and a viability, T/C [12] of 36.1%. The viability, T/C (second compound 10 µM, first compound 1 µM) was 30%, the viability, T/C (second compound 10 µM, first compound 3.16 µM) was 20.8% and the viability, T/C (second compound 10 µM, first compound 10 µM) was 20.2%.
